T1: RIG-I (Homo sapiens, UniProt O95786, K858A/K861A)
T1 construct: HEK293 cells overexpressing either the full length RIG-I; host or cells: HEK293; HCT116 also for the qRT-PCR validation
T1 sequence (O95786 1-925 K858A/K861A): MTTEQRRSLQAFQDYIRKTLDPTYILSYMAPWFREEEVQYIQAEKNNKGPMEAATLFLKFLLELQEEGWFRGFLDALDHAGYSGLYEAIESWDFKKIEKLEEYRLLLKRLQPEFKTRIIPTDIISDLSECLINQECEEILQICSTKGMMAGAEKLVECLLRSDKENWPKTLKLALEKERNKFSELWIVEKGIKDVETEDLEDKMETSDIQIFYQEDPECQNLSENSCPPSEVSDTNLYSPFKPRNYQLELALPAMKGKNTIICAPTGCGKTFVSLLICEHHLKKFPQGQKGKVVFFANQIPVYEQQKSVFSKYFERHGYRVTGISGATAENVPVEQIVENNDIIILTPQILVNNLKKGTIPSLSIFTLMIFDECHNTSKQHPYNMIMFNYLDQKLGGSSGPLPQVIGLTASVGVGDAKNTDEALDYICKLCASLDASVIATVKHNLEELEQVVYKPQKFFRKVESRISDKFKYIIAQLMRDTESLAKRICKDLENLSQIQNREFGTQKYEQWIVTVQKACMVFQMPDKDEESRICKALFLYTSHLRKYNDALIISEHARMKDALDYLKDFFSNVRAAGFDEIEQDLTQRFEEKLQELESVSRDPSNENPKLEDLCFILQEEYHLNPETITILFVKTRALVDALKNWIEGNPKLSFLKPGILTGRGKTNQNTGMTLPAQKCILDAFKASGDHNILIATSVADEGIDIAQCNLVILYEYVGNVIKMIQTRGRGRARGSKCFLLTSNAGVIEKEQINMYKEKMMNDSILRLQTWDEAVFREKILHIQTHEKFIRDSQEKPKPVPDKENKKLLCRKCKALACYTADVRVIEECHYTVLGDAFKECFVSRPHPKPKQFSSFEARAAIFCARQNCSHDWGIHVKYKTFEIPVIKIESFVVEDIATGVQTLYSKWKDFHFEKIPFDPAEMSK

B1: M5: rbRNA, RIG-I agonist, 81 nucleotides, SEQ ID NO:26 (nucleic acid)
chain: GACGAAGACCACAAAACCAGATAAAAAATTATTTTTTATCTGGTTTTGTGGTCTTCGTCTATAGTGAGTCGTATTAATTTC
modifications: listed as DNA, chemistry not given here

Molecular target: T1, RIG-I
Test: UV cross-linking with quantitative real-time PCR (CLIP-PCR) of RIG-I complexes
Format: binding
Method: Graphic representation indicating the distribution of non-coding and repetitive RNA molecules bound to RIG-I following exposure to IR as compared to total irradiated cellular RNA. Transcripts were mapped to reference genomes using RepeatMasker. See Methods for further details. […] Cells were UV crosslinked at 150 mJ/cm^2 48 hours post-IR treatment prior to cell lysis. […] FIG. 29H show IFN-b levels in culture supernatant from ICR RIG-I^+/+ and primary MEFs 24 hours post-stimulation with the same set of synthetic U1 oligonucleotides used in (FIG. 29G) The amount of U1 synthetic oligonucleotides used in all stimulation experiments was 1 μg. P values were determined using unpaired Student's t-test. Error bars are SEM. ***P<0.005.
Technically, identification of RNAs was performed as follows: HEK293 cells were transiently transfected with 3×FLAG-tagged full-size RIG-I in pEF-BOS vector (Addgene; Cambridge, Mass.). Twenty-four hours post-transfection, cells were either mock-irradiated or exposed to IR (6 Gy). Forty-eight hours post-IR, cells were lysed with a modified lysis buffer (50 mM Tris-Cl pH 7.5, 0.15 M NaCl, 0.1% NP-40, 1.0% Triton X-100, 1 mM EDTA pH8.0, 1 mM EGTA pH8.0, 10% Glycerol, 2.5 mM MgCl2, 1 mM DTT, 0.1 mM ATP, and 1× Halt Protease Inhibitor) and incubated on ice for 1 hour. Cell lysates were separated from cell debris by centrifugation at 12,000 rpm at 4° C. Protein concentration was measured by BCA kit. Anti-FLAG monoclonal antibody was added to the cell lysate at a 1:500 dilution, and incubated overnight at 4° C. Protein G sepharose beads were added to the lysates and incubated for at least 2 hours at 4° C. Beads containing the antibody-RIG-I complexes were washed five times in wash buffer (50 mM Tris-Cl pH 7.5, 0.15 M NaCl, 1 mM MgCl2, 0.05% NP-40, 1 mM DTT) and proteins were eluted from the beads using a soft elution buffer (0.5% SDS, 0.1% Tween-20, 50 mM Tris pH 8.0) for 10 minutes at room temperature with vortexing every 2-3 minutes. Proteinase K was added to the eluates and incubated at 50° C. for 45 minutes. Trizol reagent was then added to the solution, and RNA bound to RIG-I was purified following manufacturer's protocol. RNA quality was analyzed using an Agilent Bioanalyzer 2100 with Pico Series II cartridges. RNA yield was measured using the Qubit RNA Broad Range kit. For qRT-PCR validation experiments of RIG-I pulled down RNA, UV cross-linking (2 doses at 150 mJ/cm^2) was performed on HEK293 and HCT116 overexpressing RIG-I prior to cell lysis. The same protocol for pulldown and RNA purification experiments was performed as described above.

Row | Molecule | levels in RIG-I pulldown after IR (HEK293 overexpressing K858A-K861A RNA binding deficient mutant RIG-I) | binding to K858A-K861A RNA binding deficient mutant RIG-I (CLIP-PCR)
1 | U2: snRNA, SEQ ID NO:21 | did not detect increased levels | 
2 | B1 |  | did not bind

— patent US20170268001A1, “RNAS WITH TUMOR RADIO/CHEMO-SENSITIZING AND IMMUNOMODULATORY PROPERTIES AND METHODS OF THEIR PREPARATION AND APPLICATION” (THE UNIVERSITY OF CHICAGO, priority 2016, published 2017)
